Measured values published in patent publication US12384775B2, “Pyrimid-2-yl-pyrazole compounds as IRAK inhibitors” (Rigel Pharmaceuticals, Inc., priority 2022, dated 2025).

Experiments:
[1] = tested on: TLR4-induced IL-23 production in human primary dendritic cells (DC); test: IL23-p19 ELISA, dendritic cells (DC), LPS; assay type: cell-based; conditions: Dendritic cell; dendritic cells from human PBMC, IFNγ primed, LPS 1 μg/ml, 18 h; read-out: IL23-p19 ELISA, Dendritic, LPS, 10 pt EC50
Procedure: Human PBMC cells (400 million) obtained from the vendor were transferred into a T-175 flask containing 15 ml RPMI media (10% FBS) and incubate for 2 hours at 37° C. After 2 hours, the media including floating cells was aspirated out carefully and 12 ml of fresh RPMI media (10% FBS) containing GMCSF (100 ng/ml) and IL4 (20 ng/ml) was added, and the flask was kept in a 37° C. incubator for 7 days.
After 3 days, fresh GMCSF (100 ng/ml) and IL4 (20 ng/ml) were added to the flask and the incubation continued. After 7 days, the fully differentiated cells were harvested by spinning down (1200 rpm/5 min) and aspirating the media. […]
155 μl of the supernatant was harvested from each well carefully (without the tip touching the bottom of the well) and to the remaining 50 μl/well of the cell culture plate was added 50 μl of Cell Titer Glo reagent. The mixture was incubated for 1-2 minutes on a shaker and the plate was read for luminescence intensity to determine the compound cytotoxicity. […]
After 45 minutes, the plates were washed with TBST 4× and 100 ul/well Super Signal ELISA Pico Chemiluminescent Substrate from Pierce (3.5 ml A+3.5 ml B+3.5 ml MQ water) was added. The plates were shaken for 1-2 minutes then read on a plate reader. […]

[2] = tested on: TLR4-induced TNF-α production by human THP-1 cells; test: TLR4-induced TNF-α in THP-1 cells; assay type: cell-based
Procedure: THP-1 cells (100K in 100 μL/well) were primed with 25 ng/mL IFN-γ for 18 hours at 37° C., 5% CO2. Compound was serially diluted in DMSO from 2.5 mM in 4-fold dilutions, and then diluted 1:125 in RPMI 1640 complete media with 10% FBS. 100 μL/well 2× compound was mixed with the 100 μL/well IFN-7 primed THP-1 in 96 well flat-bottom white tissue culture plates. The cells were pre-incubated with compound for 1 hour at 37° C., 5% CO2 and before addition of 10 μL/well 21×LPS to give a final concentration of […] for LPS. The cells were stimulated with LPS for 18 hours at 37° C., 5% CO2. After centrifugation, 100 μL/well supernatant was extracted by using a multichannel pipette. IL-23p19 or TNF-α protein in the supernatant were measured by sandwich ELISA. The remaining IFN-7 primed THP-1 cell pellets were used to perform cell viability assays to determine compound cell toxicity. The plates were read with a luminometer, and the chemiluminescence values were entered into Athena (Rigel) for curve fitting, EC50 calculation, and database storage.

CCO[C@H]1CC[C@H](n2cc(NC(=O)c3csc(-c4cn[nH]c4)n3)c(-c3ncccn3)n2)CC1 [Compound I-1, N-(1-((1r,4r)-4-ethoxycyclohexyl)-3-(pyrimidin-2-yl)-1H-pyrazol-4-yl)-2-(1H-pyrazol-4-yl)thiazole-4-carboxamide]
EC50 [1]: 180 nM | TLR4-induced TNF-α production by human THP-1 cells [2]: inhibits
